Laboratory results as given in ChEMBL document CHEMBL4819024, “Synthesis and evaluation of andrographolide derivatives as potent anti-osteoporosis agents in vitro and in vivo” (Eur J Med Chem, 2021).
The source made the active and inactive calls. No cut-off for these calls is given here.

Columns and labels:
[1] = Toxicity in OVX-induced bone loss C57BL/6 mouse model assessed as effect on spleen morphology at 10 mg/kg, po QD for 4 weeks; type: organism-based; settings: in vivo, 672 h, dose 10 mg/kg/day
[2] = Toxicity in OVX-induced bone loss C57BL/6 mouse model assessed as effect on serum CHO level at 10 mg/kg, po QD for 4 weeks; type: organism-based; settings: in vivo, 672 h, dose 10 mg/kg/day
[3] = test system: BMMC; experiment: Downregulation of osteoclastogenesis-associated gene expression in C57BL/6 mouse BMM cells assessed as inhibition of M-CSF/RANKL-induced CTSK expression at 5 uM after 5 days by qRT-PCR analysis; type: functional, cell-based; settings: time 5.0 day
[4] = test system: BMMC; experiment: Anti-osteoporosis activity in C57BL/6 mouse BMM cells assessed as inhibition of M-CSF/RANKL-induced osteoclastogenesis by measuring reduction in size and number of osteoclasts incubated for 5 days with media replenishment for every 48 hrs measured by TRAP-staining based analysis; type: functional, cell-based; settings: dose 0.03-10 µM, time 5.0 day
[5] = target: Transcription factor p65 (Mus musculus) (UniProt Q04207); experiment: Inhibition of RANKL-induced NFkappaB signaling pathway in mouse RAW264.7 cells assessed as reduction in NFkappaB p65 nuclear translocation at 10 uM preincubated for 4 hrs followed by RANKL stimulation for 10 mins and measured by DAPI staining based immunofluorescence analysis; type: cell-based; settings: time 250.0 min
Sequence of Transcription factor p65 (Mus musculus) (Q04207 whole entry): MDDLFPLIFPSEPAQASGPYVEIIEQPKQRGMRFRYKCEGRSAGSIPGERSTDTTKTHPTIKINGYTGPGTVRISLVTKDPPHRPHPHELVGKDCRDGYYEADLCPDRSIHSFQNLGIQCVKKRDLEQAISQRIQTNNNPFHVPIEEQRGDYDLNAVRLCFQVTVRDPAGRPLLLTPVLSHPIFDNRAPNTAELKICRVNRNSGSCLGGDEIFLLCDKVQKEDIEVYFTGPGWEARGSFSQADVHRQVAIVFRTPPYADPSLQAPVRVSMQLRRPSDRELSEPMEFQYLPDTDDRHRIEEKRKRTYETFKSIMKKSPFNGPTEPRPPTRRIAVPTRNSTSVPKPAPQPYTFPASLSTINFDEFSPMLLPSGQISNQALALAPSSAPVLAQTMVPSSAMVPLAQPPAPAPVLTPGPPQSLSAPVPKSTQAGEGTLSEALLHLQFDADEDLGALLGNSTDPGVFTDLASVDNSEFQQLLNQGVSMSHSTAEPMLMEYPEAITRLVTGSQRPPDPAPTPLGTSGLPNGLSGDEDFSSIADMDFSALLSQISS

[6] = Toxicity in OVX-induced bone loss C57BL/6 mouse model assessed as effect on lung morphology at 10 mg/kg, po QD for 4 weeks; type: organism-based; settings: in vivo, 672 h, dose 10 mg/kg/day
[7] = test system: Mus musculus; experiment: Antiosteoporotic activity against OVX-induced bone loss C57BL/6 mouse model assessed as decrease in trabecular spacing in femoral metaphysis at 10 mg/kg, po QD for 4 weeks; type: functional, organism-based; settings: dose 10.0 mg/kg/day
[8] = Toxicity in OVX-induced bone loss C57BL/6 mouse model assessed as effect on serum ALP level at 10 mg/kg, po QD for 4 weeks; type: organism-based; settings: in vivo, 672 h, dose 10 mg/kg/day
[9] = test system: BMMC; experiment: Anti-osteoporosis activity in C57BL/6 mouse BMM cells assessed as inhibition of M-CSF/RANKL-induced bone resorption at 10 uM after 48 hrs by hydroxyapatite assay using Leica inverted microscope; type: functional; settings: C57BL/6, BMMC
[10] = Toxicity in OVX-induced bone loss C57BL/6 mouse model assessed as effect on serum creatinine level at 10 mg/kg, po QD for 4 weeks; type: organism-based; settings: in vivo, 672 h, dose 10 mg/kg/day
[11] = target: MAP kinase p38 (Mus musculus) (UniProt P47811+O08911+Q9WUI1+Q9Z1B7); experiment: Inhibition of RANKL-induced p38 phosphorylation in mouse RAW264.7 cells at 1 to 10 uM pretreated for 4 hrs prior to RANKL stimulation for 20 mins by western blot analysis; type: cell-based; settings: dose 1-10 µM, time 260.0 min
[12] = test system: RAW264.7; experiment: Inhibition of RANKL-induced ERK phosphorylation in mouse RAW264.7 cells at 1 to 10 uM pretreated for 4 hrs prior to RANKL stimulation for 20 mins by western blot analysis; type: cell-based; settings: dose 1-10 µM, time 260.0 min
[13] = Toxicity in OVX-induced bone loss C57BL/6 mouse model assessed as effect on serum GLU level at 10 mg/kg, po QD for 4 weeks; type: organism-based; settings: in vivo, 672 h, dose 10 mg/kg/day
[14] = test system: BMMC; experiment: Downregulation of osteoclastogenesis-associated gene expression in C57BL/6 mouse BMM cells assessed as inhibition of M-CSF/RANKL-induced TRAcP expression at 5 uM after 5 days by qRT-PCR analysis; type: functional, cell-based; settings: time 5.0 day
[15] = test system: BMMC; experiment: Anti-osteoporosis activity in C57BL/6 mouse BMM cells assessed as inhibition of M-CSF/RANKL-induced bone resorption by measuring suppression of reabsorbing pits formation after 48 hrs by hydroxyapatite assay using Leica inverted microscope; type: functional, cell-based; settings: dose 1-10 µM
[16] = Toxicity in OVX-induced bone loss C57BL/6 mouse model assessed as effect on serum ALT level at 10 mg/kg, po QD for 4 weeks; type: organism-based; settings: in vivo, 672 h, dose 10 mg/kg/day
[17] = test system: C3H 10T1/2; experiment: Induction of osteoblast differentiation in mouse C3H10T1/2 cells assessed as increase in calcium nodule formation at 1 to 10 uM measured after 14 days by alizarin red staining assay; type: functional, cell-based; settings: dose 1-10 µM, time 14.0 day
[18] = Toxicity in OVX-induced bone loss C57BL/6 mouse model assessed as effect on serum LDH level at 10 mg/kg, po QD for 4 weeks; type: organism-based; settings: in vivo, 672 h, dose 10 mg/kg/day
[19] = test system: C3H 10T1/2; experiment: Induction of osteoblast differentiation in mouse C3H10T1 /2 cells assessed as increase in ALP expression at 1 to 10 uM measured after 7 days by ALP staining based assay; type: functional, cell-based; settings: dose 1-10 µM, time 7.0 day
[20] = test system: Mus musculus; experiment: Antiosteoporotic activity against OVX-induced bone loss C57BL/6 mouse model assessed as decrease in osteocalcin secretion in serum at 10 mg/kg, po QD for 4 weeks; type: functional, organism-based; settings: dose 10.0 mg/kg/day
[21] = Toxicity in OVX-induced bone loss C57BL/6 mouse model assessed as effect on heart morphology at 10 mg/kg, po QD for 4 weeks; type: organism-based; settings: in vivo, 672 h
[22] = Toxicity in OVX-induced bone loss C57BL/6 mouse model assessed as effect on serum CK level at 10 mg/kg, po QD for 4 weeks; type: organism-based; settings: in vivo, 672 h, dose 10 mg/kg/day
[23] = test system: BMMC; experiment: Cytotoxicity against C57BL/6 mouse BMM cells assessed as reduction in cell viability at 30 uM measured after 48 hrs in presence of M-CSF by CCK8 assay; type: cell-based
[24] = test system: Mus musculus; experiment: Antiosteoporotic activity against OVX-induced bone loss C57BL/6 mouse model assessed as increase in bone volume/total bone volume in femoral metaphysis at 10 mg/kg, po QD for 4 weeks; type: functional, organism-based; settings: dose 10.0 mg/kg/day
[25] = test system: RAW264.7; experiment: Inhibition of RANKL-induced NFkappaB signaling pathway in mouse RAW264.7 cells assessed as reduction in IkappaB alpha phosphorylation at 10 uM preincubated for 4 hrs followed by RANKL stimulation for 10 mins and measured by Western blot analysis; type: cell-based; settings: time 250.0 min
[26] = test system: Mus musculus; experiment: Antiosteoporotic activity against OVX-induced bone loss C57BL/6 mouse model assessed as restoration of E2 level in serum at 10 mg/kg, po QD for 4 weeks; type: functional, organism-based; settings: dose 10.0 mg/kg/day
[27] = Toxicity in OVX-induced bone loss C57BL/6 mouse model assessed as effect on kidney morphology at 10 mg/kg, po QD for 4 weeks; type: organism-based; settings: in vivo, 672 h
[28] = Inhibition of RANKL-induced NFkappaB signaling pathway in mouse RAW264.7 cells assessed as reduction in NFkappaB p65 phosphorylation preincubated for 4 hrs followed by RANKL stimulation for 10 mins and measured by Western blot analysis; type: cell-based; settings: dose 1-10 µM, time 250.0 min
[29] = test system: Mus musculus; experiment: Antiosteoporotic activity against OVX-induced bone loss C57BL/6 mouse model assessed as decrease in ACP5 level in serum at 10 mg/kg, po QD for 4 weeks; type: functional, organism-based; settings: dose 10.0 mg/kg/day
[30] = test system: RAW264.7; experiment: Effect on NFkappaB p65 expression in RANKL-stimulated mouse RAW264.7 cells at 1 to 10 uM preincubated for 4 hrs followed by RANKL stimulation for 10 mins and measured by Western blot analysis; type: functional; settings: dose 1-10 µM, time 250.0 min
[31] = Toxicity in OVX-induced bone loss C57BL/6 mouse model assessed as effect on liver morphology at 10 mg/kg, po QD for 4 weeks; type: organism-based; settings: in vivo, 672 h, dose 10 mg/kg/day
[32] = Toxicity in OVX-induced bone loss C57BL/6 mouse model assessed as effect on serum AST level at 10 mg/kg, po QD for 4 weeks; type: organism-based; settings: in vivo, 672 h, dose 10 mg/kg/day

Question: With `C=C1CC[C@@H]2[C@](C)(CNCc3ccc(F)cc3)[C@H](O)CC[C@@]2(C)[C@@H]1/C=C/C1=CCOC1=O` as the compound, how does the Activity [1] read?
Answer: Its Activity is “Non-Toxic”.

Question: And the Activity [2]?
Answer: Its Activity is “Non-Toxic”.

Question: What about the inhibition [3] of the same compound?
Answer: Its inhibition is “Active”.

Question: And the Activity [4]?
Answer: The Activity was “Dose-Dependent Effect”.

Question: What about the inhibition [5] of the same compound?
Answer: The inhibition was “Active”.

Question: And the Activity [6]?
Answer: Its Activity is “Non-Toxic”.

Question: And the Activity [7]?
Answer: The Activity was “Active”.

Question: And the Activity [8]?
Answer: Its Activity is “Non-Toxic”.

Question: What about the inhibition at 10 µM [9] of the same compound?
Answer: The inhibition at 10 µM was 100%.

Question: What about the Activity [10] of the same compound?
Answer: The Activity was “Non-Toxic”.

Question: And the inhibition [11]?
Answer: Its inhibition is “inactive”.

Question: And the inhibition [12]?
Answer: The inhibition was “inactive”.

Question: And the Activity [13]?
Answer: The Activity was “Non-Toxic”.

Question: And the inhibition [14]?
Answer: The inhibition was “Active”.

Question: What about the Activity [15] of the same compound?
Answer: The Activity was “Dose-Dependent Effect”.

Question: What about the Activity [16] of the same compound?
Answer: Its Activity is “Non-Toxic”.

Question: What about the Activity [17] of the same compound?
Answer: The Activity was “inactive”.

Question: What about the Activity [18] of the same compound?
Answer: Its Activity is “Non-Toxic”.

Question: What about the Activity [19] of the same compound?
Answer: The Activity was “inactive”.

Question: And the Activity [20]?
Answer: The Activity was “Active”.

Question: And the Activity [21]?
Answer: Its Activity is “Non-Toxic”.

Question: What about the Activity [22] of the same compound?
Answer: The Activity was “Non-Toxic”.

Question: And the Activity [23]?
Answer: The Activity was “Non-Toxic”.

Question: And the Activity [24]?
Answer: The Activity was “Active”.

Question: And the inhibition [25]?
Answer: The inhibition was “Active”.

Question: What about the Activity [26] of the same compound?
Answer: The Activity was “Active”.

Question: What about the Activity [27] of the same compound?
Answer: Its Activity is “Non-Toxic”.

Question: And the inhibition [28]?
Answer: The inhibition was “Dose-Dependent Effect”.

Question: What about the Activity [29] of the same compound?
Answer: Its Activity is “Active”.

Question: What about the Activity [30] of the same compound?
Answer: The Activity was “inactive”.

Question: And the Activity [31]?
Answer: The Activity was “Non-Toxic”.

Question: And the Activity [32]?
Answer: The Activity was “Non-Toxic”.
